Read-outs that look alike come from different tables or passages of the source.
Tests used:
β-adrenergic nerves = test: Antagonistic activity against isoproterenol (β-adrenergic nerves blocking activity), anesthetized dogs; type: in vivo, Mongrel dogs; settings: Canis lupus familiaris, iv, isoproterenol 0.3 μg/kg, dog; for inhibition at 0.0001 mg/kg: 0.1 μg/kg i.v.; for inhibition at 0.001 mg/kg: 1.0 μg/kg i.v.; for inhibition at 0.01 mg/kg: 10 μg/kg i.v.; for inhibition at 0.1 mg/kg: 100 μg/kg i.v.
Description: For example, the antagonistic activity against isoproterenol (as an indication of β-adrenergic nerves blocking activity) of the 3,4-dihydrocarbostyril derivatives of the present invention was measured according to a method as described in R. D. Robson and H. R. Kaplan, "J. Pharmacol. Exp. Therap.," Vol. 175, page 157 (1970) as follows:
Mongrel dogs of both sexes weighing 9.7 - 19.0 kg were anesthetized with pentobarbital-Na (30 mg/kg, i.v.) and fixed on their back. Anesthesia was maintained by continuous intravenous infusion of pentobarbital-Na at a rate of 4 mg/kg/hour.
Arterial blood pressure was measured from the left femoral artery with a pressure transducer (Nihon Kohden, RP-3). The left femoral vein was cannulated for i.v. injection of drugs. Heart rate was measured with a tachometer (San-ei, type 2130) treggered by the R wave of ECG (Lead II). Blood pressure and heart rate were simultaneously recorded on an ink-writing recorder (San-ei, type 145).
Test drugs were cumulatively injected at intervals of 10 minutes after reproducibility test on the positive chronotropic and hypotensive actions of a submaximal dose of 0.3 μg/kg of isoproterenol. At the time when responses of blood pressure and heart rate to these test drugs were stabilized, at about 3 minutes after injection, isoproterenol 0.3 μg/kg was injected again. Their antagonistic activities were determined from difference between responses to isoproterenol before and after administration of the test drugs and expressed as % inhibition.

[1] = Hypotensive action, arterial blood pressure in anesthetized dogs; type: in vivo, Mongrel dogs; settings: cumulative, anesthetized dog
Description: Mongrel dogs of both sexes weighing 9.7 - 19.0 kg were anesthetized with pentobarbital-Na (30 mg/kg, i.v.) and fixed on their back. Anesthesia was maintained by continuous intravenous infusion of pentobarbital-Na at a rate of 4 mg/kg/hour. After the vinyl catheter was inserted in the left femoral vein, heparin sodium, 1000 U/kg, was intravenously injected in order to prevent blood coagulation. Arterial blood pressure was measured from the left femoral artery with a pressure transducer (Nihon Kohden, RP-3). Test drugs were dissolved in 0.9% physiological saline solution and then intravenously administered with the cumulative method at intervals of 5 - 10 minutes.

Acute toxicity (LD50) = settings: in vivo
[2] = blood pressure, read-out: Antagonistic Activity against Isoproterenol (% Inhibition of changes in BP)
[3] = heart rate, read-out: Antagonistic Activity against Isoproterenol (% Inhibition of changes in HR)

| SMILES | inhibition at 0.0001 mg/kg (β-adrenergic nerves; [2]) | inhibition at 0.001 mg/kg (β-adrenergic nerves; [2]) | inhibition at 0.01 mg/kg (β-adrenergic nerves; [2]) | inhibition at 0.1 mg/kg (β-adrenergic nerves; [2]) | inhibition at 0.0001 mg/kg (β-adrenergic nerves; [3]) | inhibition at 0.01 mg/kg (β-adrenergic nerves; [3]) | inhibition at 0.1 mg/kg (β-adrenergic nerves; [3]) | Hypotensive Action (Blood Pressure mmHg) ([1]; 0.1 μg/kg i.v.) | Hypotensive Action (Blood Pressure mmHg) ([1]; 1.0 μg/kg i.v.) | Hypotensive Action (Blood Pressure mmHg) ([1]; 10 μg/kg i.v.) | Hypotensive Action (Blood Pressure mmHg) ([1]; 100 μg/kg i.v.) | LD50 (Acute toxicity (LD50); iv) | LD50 (Acute toxicity (LD50); po) | other results |
| --- | --- | --- | --- | --- | --- | --- | --- | --- | --- | --- | --- | --- | --- | --- |
| CC(C)(C)NCC(O)COc1ccc(O)c2c1CCC(=O)N2 (centres unmarked) [drawing 12] | 18.4% | 64.6% | 94.8% | 100% | 5.1% | 97.5% | 100% |  |  |  |  |  |  | inhibition at 0.001 mg/kg (β-adrenergic nerves; [3]): 44.5% |
| COc1ccc(OCC(O)CNC(C)(C)C)c2c1NC(=O)CC2 (centres unmarked) [drawing 13] | 40.6% | 54.4% | 77.1% | 82.2% | 7% | 39.8% | 80.5% |  |  |  |  |  |  |  |
| CC(C)(C)NCC(O)COc1ccc(OCc2ccccc2)c2c1CCC(=O)N2 (centres unmarked) [drawing 14] | 20% | 10.9% | 12.6% | 8.4% | 13.5% | 21.4% | 65.4% |  |  |  |  |  |  | inhibition at 0.001 mg/kg (β-adrenergic nerves; [3]): 13.5% |
| CC(C)(C)NCC(O)COc1ccc(O)c2c1CCC(=O)N2 (centres unmarked) [drawing 15] |  |  |  |  |  |  |  | -1.6 mmHg | -5.4 mmHg | -11.8 mmHg | -30.6 mmHg |  |  |  |
| COc1ccc(OCC(O)CNC(C)(C)C)c2c1NC(=O)CC2 (centres unmarked) [drawing 16] |  |  |  |  |  |  |  | 0.0 mmHg | -2.0 mmHg | -3.5 mmHg | -5.5 mmHg |  |  |  |
| CC(C)(C)NCC(O)COc1ccc(OCc2ccccc2)c2c1CCC(=O)N2 (centres unmarked) [drawing 17] |  |  |  |  |  |  |  | -1.0 mmHg | -4.5 mmHg | -10.5 mmHg | -16.0 mmHg |  |  |  |
| CC(C)(C)NCC(O)COc1ccc(O)c2c1CCC(=O)N2 (centres unmarked) [drawing 18] |  |  |  |  |  |  |  |  |  |  |  | 94 mg/kg | 1380 mg/kg |  |
| COc1ccc(OCC(O)CNC(C)(C)C)c2c1NC(=O)CC2 (centres unmarked) [drawing 19] |  |  |  |  |  |  |  |  |  |  |  | 83 mg/kg | 1210 mg/kg |  |
| CC(C)(C)NCC(O)COc1ccc(OCc2ccccc2)c2c1CCC(=O)N2 (centres unmarked) [drawing 20] |  |  |  |  |  |  |  |  |  |  |  | 80 mg/kg | 1150 mg/kg |  |

Reference: patent publication US4072683A, “3,4-Dihydrocarbostyril derivatives” (Otsuka Pharmaceutical Co., Ltd., priority 1974, dated 1978)
